Results from patent US20250049930A1, “PROTAC MOLECULES TARGETING FOXP3 AND USES THEREOF” (CEDARS-SINAI MEDICAL CENTER, priority 2022, published 2025).
Residues, ends and D or L forms follow the SMILES beside them. *: point of attachment. X1 = O=C1CCC(N2C(=O)c3cccc(*)c3C2=O)C(=O)N1; PEG4 = NCCOCCOCCOCCOCCC(=O)O

How the values were obtained:
[1] = test system: Tregs; test: Treg immunosuppression co-culture assay with mouse splenocytes (CFSE dilution, TNFα); assay type: cell-based; details: mouse CD4+ splenocytes treated 72 hours, co-cultured with effector cells stimulated with αCD3 and αCD28
Method: FIGS. 3A-3D depict that PF decreased the immunosuppressive function of Tregs in vitro and decreased tumor growth in mice. To treat Tregs, CD4+ splenocytes were isolated and treated with PF or various controls for 72 hours. To assess the immunosuppressive effects of these cells, they were washed and co-cultured with effector cells, which were stimulated with antibodies to CD3 and CD28 in vitro (FIGS. 3A-3C). CD8 proliferation was measured using a CFSE dilution assay. To assess CD8+ effector cells, CD4 negative splenocytes were CFSE labeled and CFSE dilution was measured in CD8+ cells by flow cytometry (FIG. 3A). In the same experiment, CD8+ lymphocyte activation was assessed by measuring TNFα (FIG. 3B). Also, CD4+ lymphocyte activation was assessed by measuring TNFα (FIG. 3C). Mice tumors were established by injection RENCA cells subcutaneously in the flank of Balb/C mice (5-7 mice per group) (FIG. 3D). 10 days later, mice were treated i.p., twice a week throughout the experiment, with the indicated drugs and tumor growth was monitored. Pomalidomide conjugated to (PEG)4 (PROTAC-control; PC) and P60 served as controls. […]
To assess T cell activation in vitro, single suspension of mouse splenocytes were separated into CD4 positive (+) and negative (−) cells using EasySep Mouse CD4+ selection kit (STEMCELL technologies, Vancouver, BC, Canada). […] To study effector cell function, CD4+ and CD4− cells were cocultured (1.2 ratio) with treated-Treg and stimulated with αCD3 (10 μg/mL) and αCD28 (5 μg/mL) for 3 days; percent of CD4+ or CD8+ cells staining for intracellular FoxP3, CFSE, or TNFα were assessed by flow cytometry (LSR II, BD Biosciences, San Jose, CA 95131).
Tregs play a central role in suppressing and regulating the immune response. […] CD8 proliferation was measured using a CFSE dilution assay. To assess CD8+ effector cells, CD4 negative splenocytes were CFSE labeled and CFSE dilution was measured in CD8+ cells by flow cytometry (FIG. 3A). CD8+ lymphocyte activation was assessed by measuring TNFα (FIG. 3B). Also, CD4+ lymphocyte activation was assessed by measuring TNFα (FIG. 3C). […]

[2] = test system: CD4+ and CD8+ lymphocytes; test: Ex vivo restimulation of splenocytes/lymph nodes from treated tumor-bearing mice with CA9 peptide, flow cytometry; assay type: in vivo, Balb/C mice; details: spleen and lymph nodes harvested on day 28, restimulated ex vivo with CA9 peptide
Method: FIGS. 4A-4D depict that PF enhanced the antitumor immunity provided by αPD1 or mTOR inhibition in mice. Mice tumors were established by injecting RENCA-CA9 cells subcutaneously in the flank (day 0) of Balb/C mice (6-8 mice per group). PF was administered i.p., twice a week, throughout the experiment, starting on day 10 (FIGS. 4A and 4C). αPD1 was administered i.p., twice a week, throughout the experiment, starting on days 5 (FIG. 4A). Splenocytes were harvested, and restimulated ex vivo with mouse CA9 peptide. The splenocytes were assessed by flow cytometry for Granzyme B, IFNγ or TNFα after gating on CD4 or CD8 (FIG. 4B). In a similar mouse tumor growth experiment, temsirolimus was administered i.p. on day 10, every other day, for 14 days (FIG. 4C). Similar to FIG. 4B, splenocytes were harvested, restimulated and analyzed (FIG. 4D). Representative results are shown for experiments conducted at least twice. […]
FIGS. 6A-6C depict that PF enhances immune activation and CD8+ memory lymphocyte formation. […] Spleen and lymph nodes were harvested on day 28 and restimulated ex vivo with CA9 peptide and assessed by flow cytometry (FIGS. 6B and 6C). CD8+ lymphocytes treated with PF had increased activation as measured by IFNγ or TNFα (FIG. 6B). […]
To assess T cells in mice, CD4+ FoxP3+ cells from serial peripheral blood draws were assessed by flow cytometry. […]

`CSCC[C@H](NC(=O)[C@H](C)NC(=O)[C@H](Cc1ccccc1)NC(=O)[C@H](Cc1ccccc1)NC(=O)[C@@H]1CCCN1C(=O)[C@H](Cc1c[nH]c2ccccc12)NC(=O)[C@H](CCSC)NC(=O)[C@H](CCCCN)NC(=O)[C@H](CCCNC(=N)N)NC(=O)[C@H](Cc1ccccc1)NC(=O)[C@H](CO)NC(=O)[C@H](CCC(N)=O)NC(=O)[C@H](Cc1ccccc1)NC(=O)[C@H](CC(=O)O)NC(=O)[C@H](CCCNC(=N)N)NC(=O)CCOCCOCCOCCOCCNc1cccc2c1C(=O)N(C1CCC(=O)NC1=O)C2=O)C(=O)O` (stereo partly shown) [PF, Pomalidomide-PEG4-RDFQSFRKMWPFFAM] ({X1-PEG4}-RDFQSFRKMWPFFAM-OH) was tested, and the “suppression of CD4+ effector lymphocyte activation by treated CD4+ cells (TNFα)” value [1] was “less capable of suppressing the activation of CD4+ effector lymphocytes”, the “suppression of CD8+ lymphocyte activation by treated CD4+ lymphocytes (TNFα expression)” value [1] was “less capable of suppressing” and the “suppression of CD8+ lymphocyte proliferation by treated CD4+ lymphocytes (CFSE dilution)” value [1] was “less capable of suppressing”. The “memory markers (CD62L, CD44 and Eomes) in CD8+ cells” value [2] was “displayed a memory phenotype with increase in CD62L, CD44 and Eomes expression”.
